In this experiment the test system is P388 leukemia. The experiment in a line: NCI tumour cell line growth inhibition, 48 h.

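How tested: cells in 96-well plates exposed to compound for 48 hours at five concentrations. TGI marks complete inhibition of growth.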 Where only a bound is given, the exact number is not on record here.

These results are taken from PubChem BioAssay (NCI).

As to `COc1cc(O)c2c(c1)C(=O)c1cc3c(c(O)c1C2=O)C(OC1OC(C)C(O)C(O)C1OC)C(OC)C(C)(O)C3=O` (configuration not stated), the TGI was found to be 25.2 µM.
Consider `CNC(=O)c1cccc2c(Nc3ccc(NS(C)(=O)=O)cc3OC)c3cccc(C)c3nc12`, for which the TGI was less than 0.0384 µM.
